From patent publication US8637079B2, “Solid preparation comprising alogliptin and pioglitazone” (Takeda Pharmaceutical Company Limited, priority 2007, dated 2014)

Test: Chemical stability on storage: amount of benzoic acid remaining as compound (IA)
Type: physicochemical
Method: Compound (IA) (50 mg) of Comparative Example 1, the mixture (99.59 mg) of Comparative Example 2, and tablets of Example 1 and Example 2 were preserved in glass bottles at 40° C., 75% RH with opened cap or at 60° C. with closed cap and the amount of benzoic acid remaining as compound (IA) was measured to evaluate the chemical stability.

residual benzoic acid (40° C., 75% RH, opened bottle, 2 week storage product): 99.2%
residual benzoic acid (60° C., closed bottle, 2 week storage product): 99.0%
residual benzoic acid (Initial): 99.8%
SMILES: Cn1c(=O)cc(N2CCC[C@@H](N)C2)n(Cc2ccccc2C#N)c1=O [Comparative Example 1, 2-[[6-[(3R)-3-amino-1-piperidinyl]-3,4-dihydro-3-methyl-2,4-dioxo-1(2H)-pyrimidinyl]methyl]-benzonitrile]
